Reference: publication PMC5762309 (Oncotarget, 2017)

Tests used:
Assay type in all cases: cell-based
Settings in all cases: Mus musculus, 72 hours, CellTiter-Glo
BaF3 = test: Anti-proliferation assay, parental BaF3 cells
BaF3-tel-KIT-A829P = test: Anti-proliferation assay, transformed BaF3 cells
Source text: (§1) Retroviral constructs for BaF3-KIT mutants were made based on the pMSCVpuro (Clontech) backbone. For TEL-KIT vector, the first 1 kb of human TEL gene with an artificial myristoylation sequence ([…]) was cloned into the pMSCVpuro retroviral vector, followed by a 3xFLAG tag sequence. Then, the kinase domain coding sequence of KIT was inserted in-frame between TEL and 3xFLAG sequences. For full-length expression vectors, the coding sequences of KIT variants were directly cloned in pMSCVpuro vector with a 3xFLAG tag at the C-terminal end. All mutagenesis was performed using the QuikChange Site-Directed Mutagenesis Kit (Stratagene) following the manufacturer’s instructions. Retrovirus was packaged in HEK293T cells by transfecting KIT-containing MSCV vectors together with two helper plasmids. Virus supernatants were harvested 48 h after transfection and filtered before infection. Then BaF3 cells were infected with harvested virus supernatants using spinoculation protocol, and stable cell lines were obtained by puromycin selection for 48 h. The IL-3 concentrations in the culture medium were gradually withdrawn until cells were able to grow in the absence of IL-3.
(§2) Cells were grown in 96-well culture plates (2500/well). The compounds of various concentrations were added into the plates. Cell proliferation was determined after treatment with compounds for 72 hours. Cell viability was measured using the CellTiter–Glo assay (Promega, USA), according to the manufacturer’s instructions, and luminescence was measured in a multi-label reader (Envision, PerkinElmer, USA). Data were normalized to control groups (DMSO) and represented by the mean of three independent measurements with standard error <20%. GI50 values were calculated using Prism 5.0 (GraphPad Software, San Diego, CA).

BaF3-tel-KIT-D816V = test: Anti-proliferation assay, transformed BaF3 cells
Source text: as §1, §2

BaF3-tel-KIT-L576P = test: Anti-proliferation assay, transformed BaF3 cells
Source text: as §1, §2

BaF3-tel-KIT-N822K = test: Anti-proliferation assay, transformed BaF3 cells
Source text: as §1, §2

BaF3-tel-KIT-T670I-V559D = test: Anti-proliferation assay, transformed BaF3 cells
Source text: as §1, §2

BaF3-tel-KIT-T670I = test: Anti-proliferation assay, transformed BaF3 cells
Source text: as §1, §2

BaF3-tel-KIT-V559D-V654A = test: Anti-proliferation assay, transformed BaF3 cells
Source text: as §1, §2

BaF3-tel-KIT-V559D = test: Anti-proliferation assay, transformed BaF3 cells
Source text: as §1, §2

BaF3-tel-KIT-V654A = test: Anti-proliferation assay, transformed BaF3 cells
Source text: as §1, §2

BaF3-tel-KIT = test: Anti-proliferation assay, transformed BaF3 cells
Source text: as §1, §2

GI50 (BaF3-tel-KIT-A829P): 130 nM | GI50 (BaF3-tel-KIT-D816V): 420 nM | GI50 (BaF3-tel-KIT-L576P): 3 nM | GI50 (BaF3-tel-KIT-N822K): 120 nM | GI50 (BaF3-tel-KIT-T670I-V559D): 7 nM | GI50 (BaF3-tel-KIT-T670I): 1 nM | GI50 (BaF3-tel-KIT-V559D-V654A): 6 nM | GI50 (BaF3-tel-KIT-V559D): < 0.3 nM | GI50 (BaF3-tel-KIT-V654A): 2 nM | GI50 (BaF3-tel-KIT): 60 nM
Structure (SMILES): CCN(CC)CCNC(=O)c1c(C)[nH]c(/C=C2\C(=O)Nc3ccc(F)cc32)c1C [Sunitinib, reference compound]
GI50 (BaF3): 1300 nM
